Structures can show the parent of a compound that is named as a salt. Where two headings read alike, the source gives them in different places.
Molecular target: T1, hNaV1.7 (Homo sapiens, UniProt Q15858)
T1 construct: expressed in transfected cells; host or cells: HEK293
Assay: QPatch NaV1.7 assay (whole-cell patch clamp, QPatch16x)
Format: cell-based
Conditions: HEK293-hNaV1.7 cells
Method in brief: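 HEK293 cells expressing hNaV1.7 recorded by automated whole-cell patch clamp (CsF internal, pH 7.3). Peak currents from 20 ms steps to 0 mV measured at holding potentials of −90 mV and V1/2 SSI; four-point cumulative concentrations, 120 s each, Hill fits gave pIC50 at each potential.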

[1] = holding voltage V1/2 SSI (half of channels inactivated), read-out: QP Nav1.7 SSI vhalf pIC50 (converted)
[2] = holding voltage −90 mV (most channels closed), read-out: QP Nav1.7 −90 mV pIC50 (converted)

T1 sequence (Q15858 whole entry): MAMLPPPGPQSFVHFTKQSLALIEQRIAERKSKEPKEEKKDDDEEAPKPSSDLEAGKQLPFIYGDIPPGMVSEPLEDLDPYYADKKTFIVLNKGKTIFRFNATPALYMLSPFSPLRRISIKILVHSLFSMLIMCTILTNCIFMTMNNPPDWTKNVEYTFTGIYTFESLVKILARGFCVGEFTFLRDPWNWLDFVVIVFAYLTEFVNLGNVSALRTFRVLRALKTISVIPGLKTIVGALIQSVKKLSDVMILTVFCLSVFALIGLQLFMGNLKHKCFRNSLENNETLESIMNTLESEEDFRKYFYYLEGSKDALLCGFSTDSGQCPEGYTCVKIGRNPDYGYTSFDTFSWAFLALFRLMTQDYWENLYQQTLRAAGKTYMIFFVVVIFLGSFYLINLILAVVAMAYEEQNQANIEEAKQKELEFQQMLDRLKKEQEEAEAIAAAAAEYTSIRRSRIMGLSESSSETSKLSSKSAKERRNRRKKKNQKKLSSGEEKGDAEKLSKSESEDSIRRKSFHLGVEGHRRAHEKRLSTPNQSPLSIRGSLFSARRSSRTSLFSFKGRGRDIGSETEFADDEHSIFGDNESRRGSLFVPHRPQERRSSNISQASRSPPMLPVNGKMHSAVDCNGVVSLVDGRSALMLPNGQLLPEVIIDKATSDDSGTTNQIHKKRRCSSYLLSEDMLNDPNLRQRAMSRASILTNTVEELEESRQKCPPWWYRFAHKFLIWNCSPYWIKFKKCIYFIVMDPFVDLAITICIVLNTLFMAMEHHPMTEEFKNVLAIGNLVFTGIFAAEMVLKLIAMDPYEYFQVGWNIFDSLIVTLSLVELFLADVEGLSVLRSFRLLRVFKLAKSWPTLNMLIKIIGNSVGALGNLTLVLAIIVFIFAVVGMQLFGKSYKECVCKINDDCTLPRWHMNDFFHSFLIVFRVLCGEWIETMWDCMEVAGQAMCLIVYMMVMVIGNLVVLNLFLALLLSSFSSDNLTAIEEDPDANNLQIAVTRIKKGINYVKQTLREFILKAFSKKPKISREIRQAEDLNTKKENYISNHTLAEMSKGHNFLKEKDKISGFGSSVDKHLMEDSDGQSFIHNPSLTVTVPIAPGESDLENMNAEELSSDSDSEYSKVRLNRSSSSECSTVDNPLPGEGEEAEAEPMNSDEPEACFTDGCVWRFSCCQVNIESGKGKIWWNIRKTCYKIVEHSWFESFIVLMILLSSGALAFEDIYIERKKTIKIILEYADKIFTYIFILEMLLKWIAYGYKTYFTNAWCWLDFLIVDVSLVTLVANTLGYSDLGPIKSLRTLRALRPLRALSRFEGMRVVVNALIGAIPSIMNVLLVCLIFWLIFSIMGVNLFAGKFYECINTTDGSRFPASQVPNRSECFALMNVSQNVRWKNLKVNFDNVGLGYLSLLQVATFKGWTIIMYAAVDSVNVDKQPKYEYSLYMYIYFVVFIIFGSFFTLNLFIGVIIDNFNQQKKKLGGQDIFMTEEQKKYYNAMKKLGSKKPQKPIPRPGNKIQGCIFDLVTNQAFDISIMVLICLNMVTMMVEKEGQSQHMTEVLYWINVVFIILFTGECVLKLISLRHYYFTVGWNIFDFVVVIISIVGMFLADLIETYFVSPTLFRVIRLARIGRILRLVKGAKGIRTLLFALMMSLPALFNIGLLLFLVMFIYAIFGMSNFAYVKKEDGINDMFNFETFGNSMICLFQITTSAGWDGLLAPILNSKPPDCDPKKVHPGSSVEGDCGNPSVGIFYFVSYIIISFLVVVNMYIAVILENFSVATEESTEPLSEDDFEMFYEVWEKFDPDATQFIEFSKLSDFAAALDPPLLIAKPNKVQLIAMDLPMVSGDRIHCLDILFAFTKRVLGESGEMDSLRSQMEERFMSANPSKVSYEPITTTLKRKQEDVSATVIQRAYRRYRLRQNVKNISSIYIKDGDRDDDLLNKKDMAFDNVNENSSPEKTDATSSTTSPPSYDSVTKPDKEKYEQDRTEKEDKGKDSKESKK

| IC50 [1] [µM] | IC50 [2] [µM] | SMILES |
| --- | --- | --- |
| 126 | 2000 | CN1CC[C@@]2(CC[C@H](c3cc(-c4ccc5c(c4)CCO5)ccn3)N2)C1=O [Example 166, (2R,5S)-2-[4-(2,3-Dihydrobenzofuran-5-yl)-2-pyridyl]-7-methyl-1,7-diazaspiro[4.4]nonan-6-one hydrochloride] |
| 39.8 | 39.8 | CCOc1ccc(-c2ccnc([C@H]3CC[C@@]4(CCN(C)C4=O)N3)c2)cc1C [Example 167, (2R,5S)-2-[4-(4-Ethoxy-3-methyl-phenyl)-2-pyridyl]-7-methyl-1,7-diazaspiro[4.4]nonan-6-one hydrochloride] |
| 158 | 316 | COCc1cccc(-c2ccnc([C@H]3CC[C@@]4(CCN(C)C4=O)N3)c2)c1 [Example 168, (2R,5S)-2-[4-[3-(methoxymethyl)phenyl]-2-pyridyl]-7-methyl-1,7-diazaspiro[4.4]nonan-6-one hydrochloride] |
| 6.31 | 126 | CCOc1cc(F)ccc1-c1ccnc([C@H]2CC[C@@]3(CCN(C)C3=O)N2)c1 [Example 169, (2R,5S)-2-[4-(2-Ethoxy-4-fluoro-phenyl)-2-pyridyl]-7-methyl-1,7-diazaspiro[4.4]nonan-6-one hydrochloride] |
| 25.1 | 398 | CC(C)CCn1cc(-c2ccnc([C@H]3CC[C@@]4(CCN(C)C4=O)N3)c2)cn1 [Example 170, (2R,5S)-2-[4-(1-Isopentylpyrazol-4-yl)-2-pyridyl]-7-methyl-1,7-diazaspiro[4.4]nonan-6-one hydrochloride] |
| 50.1 | 158 | CN1CC[C@@]2(CC[C@H](c3cc(-c4ccc(C5(C#N)CC5)cc4)ccn3)N2)C1=O [Example 171, 1-[4-[2-[(2R,5S)-7-Methyl-6-oxo-1,7-diazaspiro[4.4]nonan-2-yl]-4-pyridyl]phenyl]cyclopropanecarbonitrile hydrochloride] |
| 31.6 | 316 | CN1CC[C@@]2(CC[C@H](c3cc(-c4ccc5c(c4)OC(F)(F)O5)ccn3)N2)C1=O [Example 172, (2R,5S)-2-[4-(2,2-Difluoro-1,3-benzodioxol-5-yl)-2-pyridyl]-7-methyl-1,7-diazaspiro[4.4]nonan-6-one hydrochloride] |
| 12.6 | 200 | CN1CC[C@@]2(CC[C@H](c3cc(-c4cccc(-n5cccn5)c4)ccn3)N2)C1=O [Example 173, (2R,5S)-7-Methyl-2-[4-(3-pyrazol-1-ylphenyl)-2-pyridyl]-1,7-diazaspiro[4.4]nonan-6-one hydrochloride] |
| 25.1 | 126 | Cc1cc(C)cc(-c2ccnc([C@H]3CC[C@@]4(CCN(C)C4=O)N3)c2)c1 [Example 174, (2R,5S)-2-[4-(3,5-Dimethylphenyl)-2-pyridyl]-7-methyl-1,7-diazaspiro[4.4]nonan-6-one hydrochloride] |
| 15.8 | 200 | CCOc1cc(F)c(F)c(-c2ccnc([C@H]3CC[C@@]4(CCN(C)C4=O)N3)c2)c1 [Example 175, (2R,5S)-2-[4-(5-Ethoxy-2,3-difluoro-phenyl)-2-pyridyl]-7-methyl-1,7-diazaspiro[4.4]nonan-6-one hydrochloride] |
| 20 | 200 | CN1CC[C@@]2(CC[C@H](c3cc(-c4cc(OC(F)(F)F)ccc4F)ccn3)N2)C1=O [Example 176, (2R,5S)-2-[4-[2-Fluoro-5-(trifluoromethoxy)phenyl]-2-pyridyl]-7-methyl-1,7-diazaspiro[4.4]nonan-6-one hydrochloride] |
| 0.398 | 12.6 | CCCOc1ccc(F)c(-c2ccnc([C@H]3CC[C@@]4(CCN(C)C4=O)N3)c2)c1 [Example 177, (2R,5S)-2-[4-(2-Fluoro-5-propoxy-phenyl)-2-pyridyl]-7-methyl-1,7-diazaspiro[4.4]nonan-6-one hydrochloride] |
| 25.1 | 631 | CCOc1ccc(C)c(-c2ccnc([C@H]3CC[C@@]4(CCN(C)C4=O)N3)c2)c1 [Example 178, (2R,5S)-2-[4-(5-Ethoxy-2-methyl-phenyl)-2-pyridyl]-7-methyl-1,7-diazaspiro[4.4]nonan-6-one hydrochloride] |
| 0.794 | 31.6 | CCCOc1cccc(-c2ccnc([C@H]3CC[C@@]4(CCN(C)C4=O)N3)c2)c1 [Example 179, (2R,5S)-7-Methyl-2-[4-(3-propoxyphenyl)-2-pyridyl]-1,7-diazaspiro[4.4]nonan-6-one hydrochloride] |
| 20 | 1000 | CC(C)Oc1ccc(-c2ccnc([C@H]3CC[C@@]4(CCN(C)C4=O)N3)c2)cc1C#N [Example 180, 2-Isopropoxy-5-[2-[(2R,5S)-7-methyl-6-oxo-1,7-diazaspiro[4.4]nonan-2-yl]-4-pyridyl]benzonitrile hydrochloride] |
| 5.01 | 100 | CCOc1ccc(Cl)c(-c2ccnc([C@H]3CC[C@@]4(CCN(C)C4=O)N3)c2)c1 [Example 181, (2R,5S)-2-[4-(2-Chloro-5-ethoxy-phenyl)-2-pyridyl]-7-methyl-1,7-diazaspiro[4.4]nonan-6-one hydrochloride] |
| 15.8 | 100 | Cc1ccn(-c2ccc(F)c(-c3ccnc([C@H]4CC[C@@]5(CCN(C)C5=O)N4)c3)c2)n1 [Example 182, (2R,5S)-2-[4-[2-Fluoro-5-(3-methylpyrazol-1-yl)phenyl]-2-pyridyl]-7-methyl-1,7-diazaspiro[4.4]nonan-6-one hydrochloride] |
| 3.16 | 63.1 | Cc1cnn(-c2ccc(F)c(-c3ccnc([C@H]4CC[C@@]5(CCN(C)C5=O)N4)c3)c2)c1 [Example 183, (2R,5S)-2-[4-[2-Fluoro-5-(4-methylpyrazol-1-yl)phenyl]-2-pyridyl]-7-methyl-1,7-diazaspiro[4.4]nonan-6-one hydrochloride] |
| 10 | 126 | CN1CC[C@@]2(CC[C@H](c3cc(-c4cc(-n5cccn5)ccc4F)ccn3)N2)C1=O [Example 184, (2R,5S)-2-[4-(2-Fluoro-5-pyrazol-1-yl-phenyl)-2-pyridyl]-7-methyl-1,7-diazaspiro[4.4]nonan-6-one hydrochloride] |
| 7.94 | 63.1 | CN1CC[C@@]2(CC[C@H](c3cc(-c4cc(OC5CC5)ccc4F)ccn3)N2)C1=O [Example 185, (2R,5S)-2-[4-[5-(Cyclopropoxy)-2-fluoro-phenyl]-2-pyridyl]-7-methyl-1,7-diazaspiro[4.4]nonan-6-one hydrochloride] |
| 158 | 6310 | CN1CC[C@@]2(CC[C@H](c3cc(-c4cc5[nH]ncc5cc4F)ccn3)N2)C1=O [Example 186, (2R,5S)-2-[4-(5-Fluoro-1H-indazol-6-yl)-2-pyridyl]-7-methyl-1,7-diazaspiro[4.4]nonan-6-one hydrochloride] |
| 200 | 1000 | CN1CC[C@@]2(CC[C@H](c3cc(-c4cccc5[nH]ncc45)ccn3)N2)C1=O [Example 187, (2R,5S)-2-[4-(1H-Indazol-4-yl)-2-pyridyl]-7-methyl-1,7-diazaspiro[4.4]nonan-6-one hydrochloride] |
| 100 | 501 | COCc1ccc(F)c(-c2ccnc([C@H]3CC[C@@]4(CCN(C)C4=O)N3)c2)c1 [Example 188, (2R,5S)-2-[4-[2-Fluoro-5-(methoxymethyl)phenyl]-2-pyridyl]-7-methyl-1,7-diazaspiro[4.4]nonan-6-one hydrochloride] |
| 25.1 | 251 | CCOCc1ccc(F)c(-c2ccnc([C@H]3CC[C@@]4(CCN(C)C4=O)N3)c2)c1 [Example 189, (2R,5S)-2-[4-[5-(Ethoxymethyl)-2-fluoro-phenyl]-2-pyridyl]-7-methyl-1,7-diazaspiro[4.4]nonan-6-one hydrochloride] |
| 100 | 10000 | CCOc1ccc(-c2ccnc([C@H]3CC[C@@]4(CCN(C)C4=O)N3)c2)cc1OCC [Example 190, (2R,5S)-2-[4-(3,4-Diethoxyphenyl)-2-pyridyl]-7-methyl-1,7-diazaspiro[4.4]nonan-6-one hydrochloride] |
| 25.1 | 398 | CN1CC[C@@]2(CC[C@H](c3cc(-c4cc(-c5cnn(C)c5)ccc4F)ccn3)N2)C1=O [Example 191, (2R,5S)-2-[4-[2-Fluoro-5-(1-methylpyrazol-4-yl)phenyl]-2-pyridyl]-7-methyl-1,7-diazaspiro[4.4]nonan-6-one hydrochloride] |
| 1000 | – | CN1CC[C@@]2(CC[C@H](c3cc(-c4cc(-c5ccnn5C)ccc4F)ccn3)N2)C1=O [Example 192, (2R,5S)-2-[4-[2-Fluoro-5-(2-methylpyrazol-3-yl)phenyl]-2-pyridyl]-7-methyl-1,7-diazaspiro[4.4]nonan-6-one hydrochloride] |
| 50.1 | 5010 | Cc1ccnn1-c1ccc(F)c(-c2ccnc([C@H]3CC[C@@]4(CCN(C)C4=O)N3)c2)c1 [Example 193, (2R,5S)-2-[4-[2-Fluoro-5-(5-methylpyrazol-1-yl)phenyl]-2-pyridyl]-7-methyl-1,7-diazaspiro[4.4]nonan-6-one hydrochloride] |
| 5.01 | 100 | COc1ccc(F)c(-c2cc(C)nc([C@H]3CC[C@@]4(CCN(C)C4=O)N3)c2)c1 [Example 195, (2R,5S)-2-[4-(2-Fluoro-5-methoxy-phenyl)-6-methyl-2-pyridyl]-7-methyl-1,7-diazaspiro[4.4]nonan-6-one hydrochloride] |

| SMILES | IC50 [1] [µM] | IC50 [2] [µM] |
| --- | --- | --- |
| CC(C)COc1cc(-c2ccnc([C@H]3CC[C@@]4(CCN(C)C4=O)N3)c2)ccc1F [Example 194, (2R,5S)-2-[4-(4-Fluoro-3-isobutoxy-phenyl)-2-pyridyl]-7-methyl-1,7-diazaspiro[4.4]nonan-6-one hydrochloride] | 1 | 15.8 |
